Measurements taken from the CheMixHub viscosity set.

Assay: xn = mol fraction of the nth substance listed

C=CC(=O)OC + CCCCCCC
viscosity [mPa·s], 100 kPa
Conditions	x1 = 0.1065	x1 = 0.2053	x1 = 0.3084	x1 = 0.4061	x1 = 0.5019	x1 = 0.6048	x1 = 0.703	x1 = 0.8014	x1 = 0.9456
303.15 K	0.367	0.361	0.36	0.362	0.367	0.375	0.387	0.402	0.426
308.15 K	0.337	0.333	0.332	0.336	0.343	0.353	0.365	0.381	0.406
313.15 K	0.329	0.326	0.325	0.326	0.332	0.341	0.352	0.366	0.388

CC(C)CO + CCCCCCC
303.15 K, 101.33 kPa
Conditions	viscosity [mPa·s]
x2 = 0.1513	1.552
x2 = 0.3016	1.023
x2 = 0.4515	0.724
x2 = 0.6022	0.562
x2 = 0.7374	0.478
x2 = 0.8984	0.421

CCCCCC + CCCCCCC
Conditions	viscosity [mPa·s]
298 K, 101.33 kPa, x2 = 0.1005	0.3132
298 K, 101.33 kPa, x2 = 0.1957	0.3202
298 K, 101.33 kPa, x2 = 0.3837	0.3365
298 K, 101.33 kPa, x2 = 0.508	0.3471
298 K, 101.33 kPa, x2 = 0.6023	0.3554
298 K, 101.33 kPa, x2 = 0.7154	0.3649
298 K, 101.33 kPa, x2 = 0.8009	0.3727
298 K, 101.33 kPa, x2 = 0.8944	0.3801
298.15 K, 101 kPa, x2 = 0.2069	0.3145
298.15 K, 101 kPa, x2 = 0.2091	0.315
298.15 K, 101 kPa, x2 = 0.2351	0.316
298.15 K, 101 kPa, x2 = 0.2355	0.316
298.15 K, 101 kPa, x2 = 0.2614	0.317
298.15 K, 101 kPa, x2 = 0.2637	0.317
298.15 K, 101 kPa, x2 = 0.2921	0.319
298.15 K, 101 kPa, x2 = 0.2929	0.319
298.15 K, 101 kPa, x2 = 0.3129	0.32
298.15 K, 101 kPa, x2 = 0.3245	0.3205
298.15 K, 101 kPa, x2 = 0.3582	0.323
298.15 K, 101 kPa, x2 = 0.3665	0.3245
298.15 K, 101 kPa, x2 = 0.3904	0.325
298.15 K, 101 kPa, x2 = 0.3907	0.325
298.15 K, 101 kPa, x2 = 0.4267	0.3275
298.15 K, 101 kPa, x2 = 0.4279	0.328
298.15 K, 101 kPa, x2 = 0.4662	0.331
298.15 K, 101 kPa, x2 = 0.4687	0.331
298.15 K, 101 kPa, x2 = 0.5072	0.3345
298.15 K, 101 kPa, x2 = 0.5084	0.3345
298.15 K, 101 kPa, x2 = 0.5516	0.339
298.15 K, 101 kPa, x2 = 0.5526	0.338
298.15 K, 101 kPa, x2 = 0.5986	0.344
298.15 K, 101 kPa, x2 = 0.5994	0.344
298.15 K, 101 kPa, x2 = 0.6496	0.35
298.15 K, 101 kPa, x2 = 0.6507	0.35
298.15 K, 101 kPa, x2 = 0.6856	0.3545
298.15 K, 101 kPa, x2 = 0.6881	0.355
298.15 K, 101 kPa, x2 = 0.7266	0.3595
298.15 K, 101 kPa, x2 = 0.728	0.36
298.15 K, 101.33 kPa, x1 = 0.1059	0.3792
298.15 K, 101.33 kPa, x1 = 0.2067	0.3658
298.15 K, 101.33 kPa, x1 = 0.302	0.358
298.15 K, 101.33 kPa, x1 = 0.406	0.3485
298.15 K, 101.33 kPa, x1 = 0.5051	0.3409
298.15 K, 101.33 kPa, x1 = 0.6064	0.3305
298.15 K, 101.33 kPa, x1 = 0.704	0.3227
298.15 K, 101.33 kPa, x1 = 0.8008	0.3123
298.15 K, 101.33 kPa, x1 = 0.8993	0.3075

CCOC(=O)CC + CCCCCCC
viscosity [mPa·s], 101.3 kPa
Conditions	308.15 K	318.15 K
x1 = 0.0514	0.356	0.325
x1 = 0.0967	0.36	0.329
x1 = 0.2165	0.369	0.341
x1 = 0.3027	0.376	0.35
x1 = 0.4024	0.386	0.36
x1 = 0.5033	0.396	0.372
x1 = 0.588	0.406	0.383
x1 = 0.7003	0.421	0.397
x1 = 0.7994	0.435	0.408
x1 = 0.9003	0.45	0.421
x1 = 0.9484	0.458	0.428

C=CC(=O)OC + CCCCCCCCCC
viscosity [mPa·s], 100 kPa
Conditions	x1 = 0.1092	x1 = 0.2047	x1 = 0.3019	x1 = 0.4034	x1 = 0.5015	x1 = 0.5969	x1 = 0.6987	x1 = 0.7998	x1 = 0.8966
303.15 K	0.733	0.683	0.638	0.595	0.561	0.532	0.506	0.483	0.462
308.15 K	0.668	0.625	0.585	0.548	0.519	0.495	0.474	0.456	0.437
313.15 K	0.644	0.604	0.566	0.53	0.501	0.478	0.457	0.438	0.42

CC(C)CO + CCCCCCCCCC
viscosity [mPa·s], 100 kPa
Conditions	x2 = 0.1004	x2 = 0.1999	x2 = 0.3	x2 = 0.3999	x2 = 0.5002	x2 = 0.5996	x2 = 0.7006	x2 = 0.8	x2 = 0.9
293.15 K	2.872	2.191	1.749	1.456	1.254	1.117	1.024	0.966	0.933
298.15 K	2.471	1.906	–	–	1.131	–	0.941	0.893	0.863
303.15 K	2.139	1.673	1.368	1.165	1.027	0.932	0.869	0.828	0.803
308.15 K	1.863	1.476	1.221	1.051	0.937	0.857	0.806	0.771	0.75
313.15 K	1.632	1.309	1.095	0.954	0.859	0.793	0.749	0.72	0.702
318.15 K	1.436	1.167	0.989	0.871	0.791	0.736	0.699	0.674	0.66
323.15 K	1.272	1.046	0.897	0.798	0.732	0.686	0.654	0.634	0.622

CCCCCC + CCCCCCCCCC
298.15 K, 101.33 kPa
Conditions	viscosity [mPa·s]
x1 = 0.1074	0.7809
x1 = 0.2074	0.7182
x1 = 0.3029	0.6515
x1 = 0.4046	0.5846
x1 = 0.5041	0.5315
x1 = 0.6061	0.4805
x1 = 0.7053	0.4337
x1 = 0.8034	0.3791
x1 = 0.9036	0.3365

CC(C)(C)c1ccccc1 + CCCCCCCCCCCC
viscosity [mPa·s], 102 kPa
Conditions	x1 = 0.1017	x1 = 0.2009	x1 = 0.2995	x1 = 0.4002	x1 = 0.5001	x1 = 0.5979	x1 = 0.699	x1 = 0.8	x1 = 0.9006
293.15 K	1.43	1.37	1.32	1.27	1.22	1.18	1.16	1.14	1.13
303.15 K	1.2	1.16	1.12	1.08	1.05	1.02	0.998	0.982	0.975
313.15 K	1.03	0.998	0.971	0.942	0.916	0.895	0.874	0.859	0.854
323.15 K	0.9	0.872	0.846	0.825	0.804	0.787	0.77	0.758	0.752
